# Counter-ions that a name gives are not always drawn. Like-named read-outs stand apart in the source and are kept apart here.
# Legend:
# [1] = tested on: rats with scopolamine-induced deficits; assay: Passive avoidance in rats, scopolamine-induced amnesia; format: in vivo, rat; conditions: 3.0 mg/kg ip
# Description: The protocol summarized below is one of many variants of the passive avoidance procedure using scopolamine-induced amnesia (for review see Rush, Behav Neural Biol 50:255-274, 1988). This procedure is commonly used to identify drugs that may be useful in treating cognitive deficits, particularly those observed in AD. The effects of the D
# Testing was conducted in standard 2-compartment rectangular passive avoidance chambers (San Diego Instruments, San Diego, Calif.) with black plexiglas sides and grid floors. The light compartment of the chambers were illuminated by a 20 W lamp located in this compartment; the dark side of the chambers will be shielded from light, except for light penetrating the opening connecting the two compartments of each chamber.
# On training day, groups of 8 rats were injected with scopolamine (3.0 mg/kg, ip) or vehicle (1.0 ml/kg) 30 min prior to training. Scopolamine served as the dementing agent in this experiment. Ten min prior to training, each group of rats received a second injection of vehicle or a dose of DHX. At the end of the pretreatment interval, each rat was placed individually in the light compartment facing away from the opening between compartments. The latency for each rat to travel from the light to the dark compartment was measured up to a maximum of 300 sec; any animal not entering the dark compartment within 300 sec was discarded from the test group. Once the animal entered the dark compartment completely, a 1.0 milliampere, 3.0 sec scrambled shock was delivered to the entire grid floor. The animal was allowed to remain in the dark compartment during this 3.0 sec period or to escape to the light compartment. Each rat was then returned immediately to its home cage.
# Twenty-four hr after training, each rat was tested in the same apparatus for retention of the task (to remain passively in the light compartment). […] The latency for animals to enter the dark compartment on test day (step-through latency) was recorded up to a maximum of 600 sec. Each animal was used only once in a single experiment.
# A one-way analysis of variance (ANOVA) and Newman-Keuls post-hoc comparisons were used to identify significant deficits in passive avoidance responding produced by scopolamine and their reversal by DHX; a p value of less than 0.05 was used as the level of significance.
# D1 receptors = target: T1, D1 receptors (Rattus norvegicus, UniProt P18901); assay: Affinity for D1 receptors in rat brain striatal homogenates labeled with 3H-SCH 23390; format: binding; conditions: for D1:D2 Selectivity: ratio of D2 to D1 affinity, rat striatal homogenates
# T1 construct: utilizing rat brain striatal homogenates having D1 and D2 receptors; from tissue; host or cells: rat brain striatum homogenate
# T1 sequence (P18901 whole entry): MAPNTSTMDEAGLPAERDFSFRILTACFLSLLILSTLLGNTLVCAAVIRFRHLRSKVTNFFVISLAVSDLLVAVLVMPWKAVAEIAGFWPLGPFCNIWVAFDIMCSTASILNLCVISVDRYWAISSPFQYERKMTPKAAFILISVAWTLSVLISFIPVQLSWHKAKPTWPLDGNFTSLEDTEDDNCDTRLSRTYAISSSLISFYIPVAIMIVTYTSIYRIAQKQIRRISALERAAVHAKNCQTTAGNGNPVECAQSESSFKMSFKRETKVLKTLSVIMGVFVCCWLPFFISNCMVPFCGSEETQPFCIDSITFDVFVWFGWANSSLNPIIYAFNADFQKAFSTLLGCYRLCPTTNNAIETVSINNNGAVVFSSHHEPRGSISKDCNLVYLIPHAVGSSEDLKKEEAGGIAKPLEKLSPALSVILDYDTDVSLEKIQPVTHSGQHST
# dopamine D1 receptor = dopamine D1 receptor (Homo sapiens, UniProt P21728); assay: D1 activity of hexahydrobenzo[a]phenanthridines, structure-activity statements; conditions: relative to dihydrexidine
# dopamine D1 receptor, sequence (P21728 whole entry): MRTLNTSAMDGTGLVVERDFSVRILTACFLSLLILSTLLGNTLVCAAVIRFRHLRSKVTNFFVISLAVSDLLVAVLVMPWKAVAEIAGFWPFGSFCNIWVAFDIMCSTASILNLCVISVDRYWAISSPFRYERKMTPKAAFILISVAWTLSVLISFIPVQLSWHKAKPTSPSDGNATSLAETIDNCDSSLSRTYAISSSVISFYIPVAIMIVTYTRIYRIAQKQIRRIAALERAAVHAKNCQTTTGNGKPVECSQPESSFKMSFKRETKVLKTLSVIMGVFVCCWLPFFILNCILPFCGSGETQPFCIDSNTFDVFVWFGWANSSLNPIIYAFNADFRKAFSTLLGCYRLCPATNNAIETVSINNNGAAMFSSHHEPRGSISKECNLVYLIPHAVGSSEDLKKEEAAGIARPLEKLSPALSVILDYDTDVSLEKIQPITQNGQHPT
# D2 receptor = D2 receptor (Homo sapiens, UniProt P14416); assay: D2 potency of substituted hexahydrobenzo[a]phenanthridines, structure-activity statement; conditions: relative to dihydrexidine
# D2 receptor, sequence (P14416 whole entry): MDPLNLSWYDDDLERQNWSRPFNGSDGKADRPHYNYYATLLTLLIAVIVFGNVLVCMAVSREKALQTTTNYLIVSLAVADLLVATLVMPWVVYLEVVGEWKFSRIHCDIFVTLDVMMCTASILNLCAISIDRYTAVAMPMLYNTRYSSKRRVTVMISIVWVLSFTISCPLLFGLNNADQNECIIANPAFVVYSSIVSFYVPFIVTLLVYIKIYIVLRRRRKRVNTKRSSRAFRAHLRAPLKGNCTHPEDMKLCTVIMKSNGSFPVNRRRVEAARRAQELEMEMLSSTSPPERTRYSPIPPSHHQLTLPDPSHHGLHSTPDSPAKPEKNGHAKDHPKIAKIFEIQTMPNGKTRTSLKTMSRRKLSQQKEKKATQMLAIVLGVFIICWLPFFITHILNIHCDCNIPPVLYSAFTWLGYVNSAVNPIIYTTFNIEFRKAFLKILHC
# D4 receptor [2] = target: T2, D4 receptor (Rattus norvegicus, UniProt P30729); assay: Inhibition of forskolin-stimulated adenylate cyclase through D4 receptors in CHO cells; format: cell-based
# T2 sequence (P30729 1-387): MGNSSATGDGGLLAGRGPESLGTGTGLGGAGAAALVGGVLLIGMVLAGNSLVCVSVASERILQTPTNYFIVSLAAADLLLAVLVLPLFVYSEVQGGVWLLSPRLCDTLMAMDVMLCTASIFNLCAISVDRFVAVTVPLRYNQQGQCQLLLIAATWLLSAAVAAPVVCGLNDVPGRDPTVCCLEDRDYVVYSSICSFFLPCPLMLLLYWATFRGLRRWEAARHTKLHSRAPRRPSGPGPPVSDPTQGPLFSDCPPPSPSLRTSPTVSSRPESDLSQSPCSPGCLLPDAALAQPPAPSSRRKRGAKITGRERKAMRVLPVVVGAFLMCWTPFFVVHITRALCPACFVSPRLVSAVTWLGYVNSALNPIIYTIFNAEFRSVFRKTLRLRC
# D1 receptor = D1 receptor (Homo sapiens, UniProt P21728); assay: Affinity and selectivity for the D1 receptor stated in the description, no method given; format: binding; conditions: exemplary compounds, b98
# D1 receptor, sequence (P21728 whole entry): as the sequence (P21728 whole entry) above
# [3] = tested on: adenylate cyclase in rat brain striatum; assay: Activation of adenylate cyclase in rat brain striatum; format: biochemical; conditions: compared with dopamine
# D2L receptors = D2L receptors (Homo sapiens, UniProt P14416); assay: Inhibition of forskolin-stimulated adenylate cyclase through D2L receptors in CHO cells; format: cell-based; conditions: compared with quinpirole
# D2L receptors, sequence (P14416 whole entry): as the sequence (P14416 whole entry) above
# [4] = Half-life and duration of functional activity; format: in vivo
# D4 receptor [5] = target: T2, D4 receptor; assay: Binding, cloned D4 receptor in CHO cells; set-up: expressed in transfected cells; host or cells: CHO cells; conditions: read-out: Cloned Receptors D4 CHO (rat)
# monkeys = conditions: aged and reserpine-treated monkeys; cited from earlier work
compound,measurement,setting,value
"CN1[C@@H]2C[C@@H](OC(=O)[C@H](CO)c3ccccc3)C[C@H]1[C@@H]1O[C@@H]12 [Scopolamine, reference compound]",Acquisition of the passive avoidance task,[1],severe deficit
"Cc1ccc2c(c1)CN[C@H]1CCc3cc(O)c(O)cc3[C@H]21.Cl (relative stereo) [Compound 6c, Trans-3-methyl-10,11-dihydroxy-5,6,6a,7,8,12b-hexahydrobenzo[a]phenanthridine hydrochloride]",Ki,D1 receptors,7 nM
same,D1:D2 Selectivity,D1 receptors,6
same,D1 potency and efficacy,dopamine D1 receptor,comparable to dihydrexidine
same,D2 potency,D2 receptor,greater D2 potency
same,melting point,,190 °C (dec.)
NCCc1ccc(O)c(O)c1 [dopamine],EC50,"D4 receptor [2]; read-out: EC50 (nM) ± SEM, D4, inhibition of forskolin-stimulated AC, mean ± SEM, at least three experiments",1750 ± 682 nM
"Br.Oc1ccc2c(c1O)Oc1cccc3c1C2CNC3 (centres unmarked) [Compound 16a, 8,9-dihydroxy-1,2,3,11b-tetrahydrochromeno[4,3,2-de]isoquinoline hydrobromide]",D1:D2 selective,D1 receptor,equally high affinity for both receptor subtypes
same,melting point,,298 to 302 °C (dec.)
"Oc1ccc2c(c1O)Cc1cccc3c1C2CNC3 (centres unmarked) [Compound 29, 8,9-Dihydroxy-2,3,7,11b-tetrahydro-1H-napth[1,2,3-de]isoquinoline]",Effectiveness in activating adenylate cyclase,[3],as effective as dopamine
same,Effectiveness in activating adenylate cyclase when receptor reserve is reduced,[3]; receptor reserve reduced,as effective as dopamine
same,Agonist activity for inhibition of cAMP synthesis at D2L receptors,D2L receptors,full agonist
same,Agonist activity for inhibition of cAMP synthesis at D4 receptors,D4 receptor [2],full agonist
same,EC50,"D4 receptor [2]; inhibition of forskolin-stimulated AC, mean ± SEM, at least three experiments, read-out: EC50 (nM) ± SEM, D4",60 ± 18 nM
same,Duration of functional activity,[4]; in vivo,7 to 10 h
same,half-life,"[4]; serum, read-out: Serum half-life (converted)",3 h
same,Ki,D4 receptor [5],60 nM
"CCCN1Cc2cccc3c2C(C1)c1ccc(O)c(O)c1O3 (centres unmarked) [Compound 16c, N-propyl-8,9-dihydroxy-1,2,3,11b-tetrahydrochromeno[4,3,2-de]isoquinoline]",melting point,,259 to 264 °C (dec.)
"Oc1cc2c(cc1O)C(c1ccccc1)CNCC2 (centres unmarked) [SKF 38393, reference compound]",Spatial working memory,monkeys,improved spatial working memory
"C=CCN1Cc2cccc3c2C(C1)c1ccc(O)c(O)c1O3 (centres unmarked) [Compound 16b, N-allyl-8,9-dihydroxy-1,2,3,11b-tetrahydrochromeno[4,3,2-de]isoquinoline]",melting point,,251 to 253 °C (dec.)
"Oc1ccc2c(c1O)Cc1cccc3c1C2CNC3 (centres unmarked) (as salt: hydrobromid) [Compound 29, 8,9-Dihydroxy-2,3,7,11b-tetrahydro-1H-napth[1,2,3-de]isoquinoline]",melting point,,258 °C (dec.)
Cc1cccc2c1CN[C@H]1CCc3cc(O)c(O)cc3[C@H]21.Cl (relative stereo),melting point,,195 °C (dec.)
"Cc1ccc2c(c1)[C@H]1c3cc(O)c(O)cc3CC[C@@H]1NC2.Cl (relative stereo) [Compound 6b, Trans-2-methyl-10,11-dihydroxy-5,6,6a,7,8,12b-hexahydrobenzo [a]phenanthridine hydrochloride]",D1 potency and efficacy,dopamine D1 receptor,comparable to dihydrexidine
same,melting point,,190 °C (dec.)
"Cl.Oc1cc2c(cc1O)[C@@H]1c3cc(Cc4ccccc4)ccc3CN[C@H]1CC2 (relative stereo) [Compound 6e, Trans-2-benzyl-10,11-dihydroxy-5,6,6a,7,8,12b-hexahydrobenzo[a]phenanthridine hydrochloride]",Ki,"D1 receptors; rat brain striatal homogenates, 3H-SCH 23390, read-out: D1 Affinity",290 nM
same,D1:D2 Selectivity,D1 receptors,0.6

# Reference: patent US20070155720A1, “Co-administration of dopamine-receptor binding compounds” (DarPharma, Inc., priority 2003, published 2007)
